Measurements reported in ChEMBL document CHEMBL1132933, “Protease inhibitors: synthesis and QSAR study of novel classes of nonbasic thrombin inhibitors incorporating sulfonylguanidine and O-methylsulfonylisourea moieties at P1” (J Med Chem, 2000).

biological target: Trypsin (Homo sapiens, UniProt P07477+P07478+P35030); experiment: Inhibitory activity against human trypsin (using Chromozym TH as the substrate); type: protein assay

With `COC(=N)NS(=O)(=O)C(F)(F)F` as the compound, how does the Ki read?
The Ki was 1450 nM.

`Cc1ccc(S(=O)(=O)NC(=O)N2CCCC2C(=O)Nc2ccc(S(=O)(=O)NN=C(N)N)cc2)cc1` (stereo unspecified) was tested. Which Ki did it give?
The Ki was 1530 nM.

With `COc1ccc(S(=O)(=O)N=C(N)N)cc1N` as the compound, how does the Ki read?
Its Ki is 1080 nM.

For `COC(=N)NS(=O)(=O)C(F)(F)C(F)(F)C(F)(F)C(F)(F)F`, which Ki is on record?
Its Ki is 2180 nM.

Which Ki does the source give for `Cc1ccc(S(=O)(=O)NC(=O)N[C@@H](Cc2ccccc2)C(=O)N2CCCC2C(=O)Nc2ccc(S(=O)(=O)N=C(N)N)cc2)cc1` (stereo partly specified) here?
Its Ki is 1315 nM.

How did the Ki turn out when `COC(=N)NS(=O)(=O)c1ccc(C(=O)O)cc1` was run?
The Ki was 1340 nM.

How did the Ki turn out when `COC(=N)NS(=O)(=O)c1ccc(NC(=O)[C@H](Cc2c[nH]cn2)NC(=O)CCNC(=O)NS(=O)(=O)c2ccc(C)cc2)cc1` was run?
The Ki was 1420 nM.

`N=C(N)NS(=O)(=O)c1ccc([N+](=O)[O-])cc1` was tested. Which Ki did it give?
The Ki was 975 nM.

How did the Ki turn out when `Cc1ccc(S(=O)(=O)NC(=O)NCCC(=O)N[C@@H](Cc2c[nH]cn2)C(=O)Nc2ccc(S(=O)(=O)N=C(N)N)cc2)cc1` was run?
The Ki was 1350 nM.

For `COc1ccc(S(=O)(=O)NN=C(N)N)cc1N`, which Ki is on record?
The Ki was 1100 nM.

For `COC(=N)NS(=O)(=O)c1cccc2ccccc12`, which Ki is on record?
The Ki was 1425 nM.

`N=C(N)NNS(=O)(=O)c1c(Br)c(Br)c(Br)c(Br)c1C(=O)O` was tested. Which Ki did it give?
The Ki was 1200 nM.

Which Ki does the source give for `Cc1cc(C)c(S(=O)(=O)NN=C(N)N)c(C)c1` here?
Its Ki is 1100 nM.

`COC(=N)NS(=O)(=O)C(F)(F)C(F)(F)C(F)(F)C(F)(F)C(F)(F)C(F)(F)C(F)(F)C(F)(F)F` was tested. Which Ki did it give?
Its Ki is 2135 nM.

Which Ki does the source give for `N=C(N)NS(=O)(=O)c1ccc(NC(=O)C2CCCN2C(=O)[C@H](Cc2ccccc2)NC(=O)OCc2ccccc2)cc1` (stereo partly specified) here?
Its Ki is 1360 nM.

`Cc1ccc(S(=O)(=O)NC(=O)NCCC(=O)N[C@@H](Cc2c[nH]cn2)C(=O)Nc2ccc(S(=O)(=O)NN=C(N)N)cc2)cc1` was tested. Which Ki did it give?
Its Ki is 1390 nM.

Which Ki does the source give for `CC(=O)Nc1ccc(S(=O)(=O)NN=C(N)N)cc1` here?
Its Ki is 1025 nM.

How did the Ki turn out when `N=C(N)NNS(=O)(=O)c1ccc(C(=O)O)cc1` was run?
Its Ki is 1335 nM.

For `N=C(N)NS(=O)(=O)Cc1ccccc1`, which Ki is on record?
Its Ki is 1350 nM.

Which Ki does the source give for `CN(C)c1ccc(/N=N/c2ccc(S(=O)(=O)N=C(N)N)cc2)cc1` here?
Its Ki is 1245 nM.

With `N=C(N)NNS(=O)(=O)c1ccc(F)cc1` as the compound, how does the Ki read?
The Ki was 1025 nM.

How did the Ki turn out when `Cc1ccc(S(=O)(=O)NC(=O)N[C@H](Cc2ccccc2)C(=O)Nc2ccc(S(=O)(=O)NN=C(N)N)cc2)cc1` was run?
Its Ki is 1340 nM.

With `N=C(N)NS(=O)(=O)c1cc(Cl)cc(Cl)c1O` as the compound, how does the Ki read?
The Ki was 1420 nM.

Which Ki does the source give for `COC(=N)NS(=O)(=O)c1ccc(NC(=O)[C@@H](Cc2ccccc2)NC(=O)OCc2ccccc2)cc1` here?
Its Ki is 1425 nM.

Which Ki does the source give for `CC(=O)Nc1ccc(S(=O)(=O)N=C(N)N)cc1` here?
The Ki was 1070 nM.

Which Ki does the source give for `N=C(N)NS(=O)(=O)c1ccccc1[N+](=O)[O-]` here?
The Ki was 1850 nM.

Which Ki does the source give for `COC(=N)NS(=O)(=O)c1ccc(F)cc1` here?
The Ki was 1200 nM.

How did the Ki turn out when `N=C(N)NS(=O)(=O)c1cccc([N+](=O)[O-])c1` was run?
Its Ki is 1100 nM.

Which Ki does the source give for `COC(=N)NS(=O)(=O)c1cccc2c(N(C)C)cccc12` here?
Its Ki is 1375 nM.

How did the Ki turn out when `Cc1ccc(S(=O)(=O)NC(=O)N2CCC[C@H]2C(=O)NCC(=O)Nc2ccc(S(=O)(=O)N=C(N)N)cc2)cc1` was run?
The Ki was 1400 nM.

`N=C(N)NNS(=O)(=O)c1ccc(I)cc1` was tested. Which Ki did it give?
Its Ki is 1300 nM.

`N=C(N)NNS(=O)(=O)c1ccccc1[N+](=O)[O-]` was tested. Which Ki did it give?
Its Ki is 1800 nM.

Which Ki does the source give for `Cc1ccc(S(=O)(=O)NC(=O)N2CCCC2C(=O)Nc2ccc(S(=O)(=O)N=C(N)N)cc2)cc1` (stereo unspecified) here?
Its Ki is 1445 nM.

How did the Ki turn out when `N=C(N)NS(=O)(=O)c1ccc(Br)cc1` was run?
The Ki was 1230 nM.

With `Cc1cc(C)c(S(=O)(=O)N=C(N)N)c(C)c1` as the compound, how does the Ki read?
The Ki was 1450 nM.

With `COC(=N)NS(=O)(=O)c1ccc(N)cc1` as the compound, how does the Ki read?
The Ki was 1580 nM.

How did the Ki turn out when `Cc1ccc(S(=O)(=O)NN=C(N)N)cc1` was run?
Its Ki is 1775 nM.

Which Ki does the source give for `COC(=N)NS(=O)(=O)c1cccc(C(=O)O)c1` here?
Its Ki is 1595 nM.

`COC(=N)NS(=O)(=O)c1cc(Cl)cc(Cl)c1O` was tested. Which Ki did it give?
The Ki was 1550 nM.

Which Ki does the source give for `N=C(N)NS(=O)(=O)c1ccc(N)cc1` [SULFAGUANIDINE] here?
Its Ki is 1350 nM.

For `N=C(N)NS(=O)(=O)c1cccc(C(=O)O)c1`, which Ki is on record?
Its Ki is 1500 nM.

How did the Ki turn out when `COC(=N)NS(=O)(=O)c1ccc(Cl)cc1` was run?
The Ki was 1325 nM.

Which Ki does the source give for `COC(=N)NS(=O)(=O)c1ccc([N+](=O)[O-])cc1` here?
Its Ki is 1235 nM.

biological target: Prothrombin (Homo sapiens, UniProt P00734); experiment: Inhibitory activity against human thrombin (using Chromozym TH as the substrate)

With `COC(=N)NS(=O)(=O)C(F)(F)F` as the compound, how does the Ki read?
Its Ki is 895 nM.

With `Cc1ccc(S(=O)(=O)NC(=O)N2CCCC2C(=O)Nc2ccc(S(=O)(=O)NN=C(N)N)cc2)cc1` (stereo unspecified) as the compound, how does the Ki read?
The Ki was 43 nM.

`COc1ccc(S(=O)(=O)N=C(N)N)cc1N` was tested. Which Ki did it give?
Its Ki is 103 nM.

For `COC(=N)NS(=O)(=O)C(F)(F)C(F)(F)C(F)(F)C(F)(F)F`, which Ki is on record?
Its Ki is 565 nM.

With `Cc1ccc(S(=O)(=O)NC(=O)N[C@@H](Cc2ccccc2)C(=O)N2CCCC2C(=O)Nc2ccc(S(=O)(=O)N=C(N)N)cc2)cc1` (stereo partly specified) as the compound, how does the Ki read?
The Ki was 12 nM.

For `COC(=N)NS(=O)(=O)c1ccc(C(=O)O)cc1`, which Ki is on record?
The Ki was 133 nM.

How did the Ki turn out when `COC(=N)NS(=O)(=O)c1ccc(NC(=O)[C@H](Cc2c[nH]cn2)NC(=O)CCNC(=O)NS(=O)(=O)c2ccc(C)cc2)cc1` was run?
The Ki was 19 nM.

For `N=C(N)NS(=O)(=O)c1ccc([N+](=O)[O-])cc1`, which Ki is on record?
The Ki was 180 nM.

Which Ki does the source give for `Cc1ccc(S(=O)(=O)NC(=O)NCCC(=O)N[C@@H](Cc2c[nH]cn2)C(=O)Nc2ccc(S(=O)(=O)N=C(N)N)cc2)cc1` here?
The Ki was 15 nM.

For `COc1ccc(S(=O)(=O)NN=C(N)N)cc1N`, which Ki is on record?
The Ki was 219 nM.

For `COC(=N)NS(=O)(=O)c1cccc2ccccc12`, which Ki is on record?
Its Ki is 154 nM.

`N=C(N)NNS(=O)(=O)c1c(Br)c(Br)c(Br)c(Br)c1C(=O)O` was tested. Which Ki did it give?
Its Ki is 213 nM.

With `Cc1cc(C)c(S(=O)(=O)NN=C(N)N)c(C)c1` as the compound, how does the Ki read?
Its Ki is 219 nM.

`COC(=N)NS(=O)(=O)C(F)(F)C(F)(F)C(F)(F)C(F)(F)C(F)(F)C(F)(F)C(F)(F)C(F)(F)F` was tested. Which Ki did it give?
The Ki was 403 nM.

For `N=C(N)NS(=O)(=O)c1ccc(NC(=O)C2CCCN2C(=O)[C@H](Cc2ccccc2)NC(=O)OCc2ccccc2)cc1` (stereo partly specified), which Ki is on record?
Its Ki is 13 nM.

Which Ki does the source give for `Cc1ccc(S(=O)(=O)NC(=O)NCCC(=O)N[C@@H](Cc2c[nH]cn2)C(=O)Nc2ccc(S(=O)(=O)NN=C(N)N)cc2)cc1` here?
The Ki was 10 nM.

For `CC(=O)Nc1ccc(S(=O)(=O)NN=C(N)N)cc1`, which Ki is on record?
The Ki was 172 nM.

How did the Ki turn out when `N=C(N)NNS(=O)(=O)c1ccc(C(=O)O)cc1` was run?
Its Ki is 97 nM.

`N=C(N)NS(=O)(=O)Cc1ccccc1` was tested. Which Ki did it give?
Its Ki is 330 nM.

Which Ki does the source give for `CN(C)c1ccc(/N=N/c2ccc(S(=O)(=O)N=C(N)N)cc2)cc1` here?
The Ki was 134 nM.

For `N=C(N)NNS(=O)(=O)c1ccc(F)cc1`, which Ki is on record?
The Ki was 225 nM.

How did the Ki turn out when `Cc1ccc(S(=O)(=O)NC(=O)N[C@H](Cc2ccccc2)C(=O)Nc2ccc(S(=O)(=O)NN=C(N)N)cc2)cc1` was run?
Its Ki is 44 nM.

With `N=C(N)NS(=O)(=O)c1cc(Cl)cc(Cl)c1O` as the compound, how does the Ki read?
The Ki was 152 nM.

Which Ki does the source give for `COC(=N)NS(=O)(=O)c1ccc(NC(=O)[C@@H](Cc2ccccc2)NC(=O)OCc2ccccc2)cc1` here?
The Ki was 62 nM.

Which Ki does the source give for `CC(=O)Nc1ccc(S(=O)(=O)N=C(N)N)cc1` here?
Its Ki is 195 nM.

`N=C(N)NS(=O)(=O)c1ccccc1[N+](=O)[O-]` was tested. Which Ki did it give?
Its Ki is 320 nM.

For `COC(=N)NS(=O)(=O)c1ccc(F)cc1`, which Ki is on record?
The Ki was 280 nM.

Which Ki does the source give for `N=C(N)NS(=O)(=O)c1cccc([N+](=O)[O-])c1` here?
Its Ki is 190 nM.

For `COC(=N)NS(=O)(=O)c1cccc2c(N(C)C)cccc12`, which Ki is on record?
The Ki was 138 nM.

How did the Ki turn out when `Cc1ccc(S(=O)(=O)NC(=O)N2CCC[C@H]2C(=O)NCC(=O)Nc2ccc(S(=O)(=O)N=C(N)N)cc2)cc1` was run?
Its Ki is 21 nM.

For `N=C(N)NNS(=O)(=O)c1ccc(I)cc1`, which Ki is on record?
Its Ki is 177 nM.

For `N=C(N)NNS(=O)(=O)c1ccccc1[N+](=O)[O-]`, which Ki is on record?
The Ki was 324 nM.

How did the Ki turn out when `Cc1ccc(S(=O)(=O)NC(=O)N2CCCC2C(=O)Nc2ccc(S(=O)(=O)N=C(N)N)cc2)cc1` (stereo unspecified) was run?
The Ki was 48 nM.

For `N=C(N)NS(=O)(=O)c1ccc(Br)cc1`, which Ki is on record?
The Ki was 220 nM.

`Cc1cc(C)c(S(=O)(=O)N=C(N)N)c(C)c1` was tested. Which Ki did it give?
Its Ki is 255 nM.

How did the Ki turn out when `COC(=N)NS(=O)(=O)c1ccc(N)cc1` was run?
Its Ki is 106 nM.

For `Cc1ccc(S(=O)(=O)NN=C(N)N)cc1`, which Ki is on record?
Its Ki is 270 nM.

`COC(=N)NS(=O)(=O)c1cccc(C(=O)O)c1` was tested. Which Ki did it give?
Its Ki is 197 nM.

Which Ki does the source give for `COC(=N)NS(=O)(=O)c1cc(Cl)cc(Cl)c1O` here?
Its Ki is 170 nM.

With `N=C(N)NS(=O)(=O)c1ccc(N)cc1` [SULFAGUANIDINE] as the compound, how does the Ki read?
The Ki was 95 nM.

For `N=C(N)NS(=O)(=O)c1cccc(C(=O)O)c1`, which Ki is on record?
The Ki was 121 nM.

For `COC(=N)NS(=O)(=O)c1ccc(Cl)cc1`, which Ki is on record?
Its Ki is 266 nM.

How did the Ki turn out when `COC(=N)NS(=O)(=O)c1ccc([N+](=O)[O-])cc1` was run?
Its Ki is 189 nM.
